Results reported in US20040138169A1, “Composition and use of substances for stabilising amino acids containing sulphur” (priority 2001, published 2004).
Entries after “also recorded” stand apart in the source; their conditions may differ.

Legend:
[1] = test system: sulphur-containing amino acids (HCY, CYS, CYSGLY, GLU) in whole blood; assay: Stabilization of sulphur-containing amino acids (HCY, CYS, CYSGLY, GLU) together in whole blood samples; format: cell-based; conditions: substance used alone, samples at room temperature
Description: (§1) Material Used and Processes
(§2) The following inhibitors of methyl transferase or S-adenosylhomocysteine hydrolase have been tested
(§3) The effectiveness of the inhibitors have been tested in combination with the following acids:
(§4) The compositions of further reagents have been:
(§5) Mixture A: 5(4)-AMCA (5.2 mg) and DEOA (3.2 mg), dissolved in 500 μl phosphate buffer.
(§6) Composition of the buffer for mixture A:
(§7) All other substances have been dissolved in water.
(§8) Blood Withdrawal and Treatment of Samples
(§9) Corresponding amounts of stabilizers have been provided in EDTA- or Na-heparin-monovettes for each Example or Comparative Example (see Table 1). The blood withdrawal has been carried out in monovettes with and without stabilizers. For the control value, the monovettes have been centrifuged within 30 minutes after withdrawal.

[2] = test system: HCY-concentration in whole blood; assay: Stabilization of the homocysteine (HCY) concentration in withdrawn whole blood stored in monovettes with stabilizer; format: cell-based; conditions: room temperature; for HCY-SD (duration of stabilization): whole blood in EDTA- or Na-heparin-monovettes with stabilizer (amount per ml blood); for stabilization of homocysteine (duration): whole blood
Description: as §1, §2, §3, §4, §5, §6, §7, §8, §9

[3] = Storage stability of the reagent; format: physicochemical; conditions: can be stored only in cooled state (+4° C.)
Description: A problem which occurs when using 3-deazaadenosine resides in that noticable variations of the measured values occur, lying in the range of up to 2 μmol/l in 60 hours with homocysteine and in the range of up to 60 μmol/l in 60 hours with cysteine. […] A further problem resides in that 3-deazaadenosine is not stable at room temperature and can be stored only in cooled state (+4° C.), which limits also its shipment capabilities. However, a simple handling of the reagents is of great importance in the diagnostic medicine, because for example withdrawn blood must be present in an unmodified form and transportable over an extended period without larger expenditure like, for example, cooling.

[4] = test system: concentration of cysteine (CYS) in whole blood; assay: Stabilization of the cysteine (CYS) concentration in withdrawn whole blood stored in monovettes with stabilizer; format: cell-based; conditions: whole blood in EDTA- or Na-heparin-monovettes with stabilizer (amount per ml blood), room temperature
Description: as §1, §2, §3, §4, §5, §6, §7, §8, §9

[5] = test system: homocysteine level in blood; conditions: cited from earlier work
[6] = test system: concentration of cysteinyl glycine (CYSGLY) in whole blood; assay: Stabilization of the cysteinyl glycine (CYSGLY) concentration in withdrawn whole blood stored in monovettes with stabilizer; format: cell-based
Description: as §1, §2, §3, §4, §5, §6, §7, §8, §9

[7] = test system: concentration of glutathione (GLU) in whole blood; assay: Stabilization of the glutathione (GLU) concentration in withdrawn whole blood stored in monovettes with stabilizer; format: cell-based
Description: as §1, §2, §3, §4, §5, §6, §7, §8, §9

| Compound | stabilization of the sulphur-containing amino acids (in words) [1] | HCY-SD (duration of stabilization) [2] | CYS-SD (duration of stabilization) [4] | further results |
| --- | --- | --- | --- | --- |
| Nc1ncnc2c1ncn2[C@H]1C[C@H](O)[C@@H](CO)O1 [2′-deoxyadenosin] | no significant stabilization | – | – | – |
| NC(=O)c1nc[nH]c1N [5(4)-aminoimidazol-4(5)-carboxamid, 5(4)-aminoimidazol-4(5)-carboxamide] | no significant stabilization | – | – | – |
| Nc1nccc2c1ncn2[C@@H]1O[C@H](CO)[C@@H](O)[C@H]1O [Cmp.-Ex. 1, 3-deazaadenosin] | – | 56 h | 56 h | stability of the reagent at room temperature (in words) [3]: not stable; increase of the homocysteine level ([5]; 72 hours after the blood withdrawal): about 10%; time over which the reaction from S-adenosylhomocysteine to homocysteine is effectively inhibited ([5]; blood samples): up to 72 hours; time without increase of the homocysteine level in blood ([5]; blood samples): up to 24 hours; inhibition of the formation of cysteinyl glycine (in words) [6]: does not inhibit; inhibition of the formation of glutathione (in words) [7]: does not inhibit |
| O=C1O[C@H]([C@@H](O)CO)C(O)=C1O [Cmp.-Ex. 2, ascorbic acid] | – | 73 h | 73 h | CYSGLY-SD (duration of stabilization) ([6]; whole blood in EDTA- or Na-heparin-monovettes with stabilizer (amount per ml blood), room temperature): 73 h |
| O=C(O)/C=C/C(=O)O [Cmp.-Ex. 3, fumaric acid] | – | 47 h | 47 h | – |
| Nc1ncnc2c1ncn2[C@@H]1C=C(CO)[C@@H](O)[C@H]1O [Ex. 13, neplanocin A] | – | 70 h | – | – |
| Nc1nccc2c1ncn2[C@@H]1C=C(CO)[C@@H](O)[C@H]1O [Ex. 14, 3-deazaneplanocin A] | – | 143 h | – | stabilization of homocysteine (duration) [2]: at least 143 hours; stabilization of homocysteine (duration) ([2]; listed as 3DA-NeplA): 143 h |
| O=C(O)CN(CCN(CC(=O)O)CC(=O)O)CC(=O)O [Na-EDTA, ethylenediamine tetraacetic acid] | no stabilization | – | – | – |
| [F-].[Na+] [NaF] | – | – | – | change of the homocysteine level in blood samples (in words) ([5]; in comparison with the initial value at the time of withdrawing the blood): no increase; also recorded: decrease |
| O=C(O)CC(O)(CC(=O)O)C(=O)O [citric acid] | no stabilization | – | – | – |
